Experimental data reported in US20150374705A1, “Substances for treatment or relief of pain” (Shanghai Institues for Biological Sciences, priority 2012, published 2015).
“Also recorded” adds a separate entry of the source.

Tests used:
[1] = target: T1, Human recombinant GABAA receptor containing α1 subunit (α1, β3, γ2) (Homo sapiens, UniProt P14867+P18507); experiment: Competitive radioligand binding ([3H]Ro-0151788) on membranes of 293 cells, Ki; conditions: human recombinant GABAA subtype containing α1; read-out: Affinity, nM (α1)
T1 construct: expressed in transfected cells; host or cells: 293 cell line
Procedure: (§1) Different subunits of GABAA receptor were expressed in cell lines, including human kidney epithelial cell line, 293 cell line or L(tk−) cell line. The cells were cultured in medium, and such cells were used as the cellular model for screening drugs to suppress pain. a subunit, β subunit and γ subunit are indispensable for one complete functional GABAA receptor.
(§2) In this example, the inventors established the following cellular models:
(§3) (b) simultaneously expressing α1 subunit (GenBank accession number: NM_001127648.1), β3 subunit and γ2 subunit in 293 cell line, forming the GABAA receptor containing α1 subunit; • (c) simultaneously expressing α2 subunit (for the protein sequence, see GenBank accession number NM_000813.2), β3 subunit and γ2 subunit in 293 cell line, forming the GABAA receptor containing α2 subunit;
(§4) Each of the (a) to (d) above could form a GABAA receptor with complete function.
(§5) Then, the cellular membrane was extracted and the protein concentration was measured. The competitive binding of the substances to be measured and radiolabelled compounds (e.g. 1 nM [^3H]Ro-0151788) were detected respectively to calculate the Ki value of the substances to be measured, see the method described in literature (Ballard T M et al., RO4938581, a novel cognitive enhancer acting at GABAA alpha5 subunit-containing receptors. Psychopharmacology (Berl). 2009 January; 202(1-3): 207-23). If the binding inhibition constant Ki (nM) of α5-GABAA receptor with the candidate substances in experimental group is less than the Ki of the receptor containing other a subunit (α1 subunit, α2 subunit or α3 subunit), then the candidate substance is a potential drugs for preventing, relieving or treating pain. Many methods can be used by those skilled in the art to evaluate the binding capacity of the ligand of α5-GABAA receptor to the α5-GABAA receptor, including but not limiting to the method above.

[2] = target: T2, Human recombinant GABAA receptor containing α3 subunit (α3, β3, γ2) (Homo sapiens, UniProt P18507+P34903); experiment: as above; conditions: human recombinant GABAA subtype containing α3; read-out: Affinity, nM (α3)
T2 construct: expressed in transfected cells; host or cells: 293 cell line
Procedure: as §1, §2
(§6) (d) simultaneously expressing α3 subunit (for the protein sequence, see GenBank accession number NM_000808.3), β3 subunit and γ2 subunit in 293 cell line, forming the GABAA receptor containing α3 subunit;
as §4, §5

[3] = target: T3, Human recombinant GABAA receptor containing α5 subunit (α5, β3, γ2) (Homo sapiens, UniProt P18507+P31644); experiment: as above; conditions: human recombinant GABAA subtype containing α5; read-out: Affinity, nM (α5)
T3 construct: expressed in transfected cells; host or cells: 293 cell line
Procedure: as §1, §2
(§7) (a) simultaneously expressing α5 subunit (for the protein sequence, see GenBank accession number NM_001165037.1), β3 subunit (for the protein sequence, see GenBank accession number NM_021912.4) and γ2 subunit (for the protein sequence, see GenBank accession number NM_198904.2) in 293 cell line, forming the GABAA receptor containing α5 subunit;
as §4, §5

[4] = target: T4, Human recombinant GABAA receptor containing α1 subunit (Homo sapiens, UniProt P14867+P18507); experiment: Electrophysiological inverse agonist efficacy on GABA-induced current; assay type: cell-based; conditions: change of GABA-induced current; negative = inhibition
T4 construct: expressed in transfected cells; host or cells: 293 cell line
Procedure: as §1, §3
(§8) The inventors used electrophysiological methods to measure the inverse agonist efficacy of the substances to be measured, see the method described in literature (Ballard T M et al., RO4938581, a novel cognitive enhancer acting at GABAA alpha5 subunit-containing receptors. Psychopharmacology (Berl). 2009 January; 202 (1-3): 207-23). […] Many methods can be used by those skilled in the art to evaluate the binding capacity of the ligand of α5-GABAA receptor to the α5-GABAA receptor, including but not limiting to the method above.
(§9) Inverse agonist efficacy represents the inhibition percentage of the candidate substance on the current induced by GABA through α5-GABAA receptor=(the current intensity induced by GABA through α5-GABAA receptor with the existence of candidate substance−the current intensity induced by GABA through α5-GABAA receptor without the existence of candidate substance)/the current intensity induced by GABA through α5-GABAA receptor without the existence of candidate substance.

[5] = system: Human recombinant GABAA receptor containing α2 subunit; experiment: as above; assay type: cell-based; conditions: change of GABA-induced current; negative = inhibition
Procedure: as §1, §3, §8, §9

[6] = target: T5, Human recombinant GABAA receptor containing α3 subunit (Homo sapiens, UniProt P18507+P34903); experiment: as above; assay type: cell-based; conditions: change of GABA-induced current; negative = inhibition
T5 construct: expressed in transfected cells; host or cells: 293 cell line
Procedure: as §1, §6, §8, §9

[7] = target: T6, Human recombinant α5-GABAA receptor (Homo sapiens, UniProt P18507+P31644); experiment: as above; assay type: cell-based; conditions: change of GABA-induced current; negative = inhibition
T6 construct: expressed in transfected cells; host or cells: 293 cell line
Procedure: as §1, §7, §8, §9

[8] = system: CFA induced inflammatory pain model rats (heat pain); experiment: CFA induced inflammatory pain model, heat pain threshold; assay type: in vivo; conditions: rat
[9] = system: CFA induced inflammatory pain model rats (mechanical pain); experiment: CFA induced inflammatory pain model, mechanical pain threshold; assay type: in vivo; conditions: rat

Row | SMILES | Ki [1] [nM] | Ki [2] [nM] | Ki [3] [nM] | Inverse agonist efficacy, % (α1) [4] [%] | Inverse agonist efficacy, % (α2) [5] [%] | Inverse agonist efficacy, % (α3) [6] [%] | Inverse agonist efficacy, % (α5) [7] [%] | Suppression of heat pain ([8]; oral administration, 3 days after CFA model, 1 hour after administration) | Suppression of mechanical pain ([9]; oral administration, 7 days after CFA model, 1 hour after administration) | Suppression of heat pain ([8]; 3 mg/kg intraperitoneal, 3 days after CFA, 0.5-3.0 hours after administration, listed as A5I, 3 mg/kg) | Suppression of mechanical pain ([9]; 3 mg/kg intraperitoneal, 7 days after CFA, 0.5-24 hours after administration, listed as A5I, 3 mg/kg)
1 | Cn1ncnc1COc1nn2c(-c3cc(CO)on3)nncc2c1C(C)(C)C [MRK016-M3, (3-(3-tert-butyl-2-((2-methyl-2H-1,2,4-triazol-3-yl)methoxy)pyrazolo [1,5-d][1,2,4]triazin-7-yl)isoxazol-5-yl)methanol] | 1.5 | 0.69 | 1.1 | −11 | −1 | −15 | −52 | significantly suppress inflammatory pain; also recorded: significantly suppressed pain | significantly suppress inflammatory pain; also recorded: significantly suppressed pain |  | 
2 | Cc1cc(-c2nnc3c4ccccc4c(OCC4=CC(C)C=N4)nn23)no1 (stereo not drawn) [α5IA] | 0.88 | 0.61 | 0.66 | −4 | 12 | 4 | −29 |  |  | efficiently inhibit inflammatory pain; also recorded: efficiently treat heat pain | efficiently treat mechanical pain; also recorded: efficiently inhibit inflammatory pain
